Assays:
Type in all cases: in vivo
[1] = tested on: Spodoptera littoralis (Egyptian cotton leaf worm); test: Example B2: Spodoptera littoralis systemic activity (lettuce on agar); conditions: 120 h, systemic via lettuce roots, 5 days after infestation, read-out: activity (mortality, repellent effect, feeding behavior, growth regulation)
Source text: Example B2: Activity Against Spodoptera littoralis (Egyptian Cotton Leaf Worm)
Test compounds were applied by pipette into 24 well plates and mixed with agar. Lettuce seeds were placed on the agar and the multi well plate is closed by another plate which contains also agar. After 7 days the roots have absorbed the compound and the lettuce has grown into the lid plate. The lettuce leaves were now cut off into the lid plate. Spodoptera eggs were pipetted through a plastic stencil on a humid gel blotting paper and the plate closed with it. The samples are checked for mortality, repellent effect, feeding behavior, and growth regulation 5 days after infestation.

[2] = tested on: Diabrotica balteata (corn root worm); test: Example B4: Diabrotica balteata larvae L2 on maize sprouts, feeding/contact, preventative; conditions: 120 h, L2 larvae on sprayed maize sprouts, 5 days incubation, read-out: activity (larval mortality, growth regulation)
Procedure: Example B4: Activity Against Diabrotica Balteata (Corn Root Worm)
(Larvae L2 on Maize Sprouts, Feeding/Contact, Preventative)
Maize sprouts, placed on an agar layer in 24 well micro titer plates were treated with test solutions by spraying. After drying, the MTPs were infested with L2 larvae (6-10 per well). After an incubation period of 5 days, samples were checked for larval mortality and growth regulation.

[3] = tested on: Plutella xylostella (diamond back moth); test: Example B3: Plutella xylostella larvicide, feeding/residual contact, preventive (artificial diet); conditions: 120 h, L2 larvae on artificial diet, 5 days incubation, read-out: activity (larval mortality, antifeedant, growth regulation)
Procedure: Example B3: Activity Against Plutella xylostella (Diamond Back Moth)
(Larvicide, Feeding/Residual Contact Activity, Preventive)
24-well microtiter plate (MTP) with artificial diet was treated with test solutions by pipetting. After drying, the MTPs were infested with L2 larvae (10-15 per well). After an incubation period of 5 days, samples were checked for larval mortality, antifeedant and growth regulation.

[4] = tested on: Spodoptera littoralis (Egyptian cotton leaf worm); test: Example B1: Spodoptera littoralis larvicide, feeding/residual contact, preventive (cotton leaf discs); conditions: foliar, 72 h, L1 larvae on sprayed cotton leaf discs, 3 days after treatment, read-out: activity (mortality, repellent effect, feeding behaviour, growth regulation)
Source text: Example B1: Activity Against Spodoptera littoralis (Egyptian Cotton Leaf Worm)
Larvicide, Feeding/Residual Contact Activity, Preventive
Cotton leaf discs were placed on agar in a 24-well microtiter plate and sprayed with test solutions.
After drying, the leaf discs were infested with 5 L1 larvae. The samples were checked for mortality, repellent effect, feeding behaviour, and growth regulation 3 days after treatment (DAT).

[5] = tested on: Myzus persicae (green peach aphid); test: Example B5: Myzus persicae feeding/residual contact, preventive, mixed population (sunflower leaf discs); conditions: foliar, 144 h, mixed population on sprayed sunflower leaf discs, 6 DAT, read-out: activity (mortality, special effects)
Procedure: Example B5: Activity Against Myzus persicae (Green Peach Aphid)
(Feeding/Residual Contact Activity, Preventive), Mixed Population
(§1) Sunflower leaf discs were placed on agar in a 24-well microtiter plate and sprayed with test solutions. After drying, the leaf discs were infested with an aphid population of mixed ages. After an incubation period of 6 DAT, samples were checked for mortality and special effects (e.g. phytotoxicity).

[6] = tested on: Bemisia tabaci (cotton white fly); test: Example B9: Bemisia tabaci adulticide contact activity, preventative; conditions: foliar, 168 h, adult white flies on sprayed cotton leaf discs, 7 DAT, read-out: activity (mortality, special effects)
Procedure: Example B9: Activity Against Bemisia tabaci (Cotton White Fly)
(Adulticide Contact Activity, Preventative), Adult
Cotton leaf discs were placed on agar in a 24-well microtiter plate and sprayed with test solutions. After drying, the leaf discs were infested with adult white flies. After an incubation period of 7 DAT, samples were checked for mortality and special effects (e.g. phytotoxicity).

[7] = tested on: Myzus persicae (green peach aphid); test: Example B6: Myzus persicae feeding activity sachet test, mixed population; conditions: 120 h, sachet test in sucrose solution, 5 days after infestation
Source text: Example B6: Activity Against Myzus persicae (Green Peach Aphid)
(Feeding Activity Sachet Test), Mixed Population
Test compounds were applied by pipette into 24 well plates and mixed with Sucrose solution. The plates were closed with a stretched Parafilm. A plastic stencil with 24 holes is placed onto the plate and infested pea seedlings were placed directly on the Parafilm. The infested plate is closed with a gel blotting paper and another plastic stencil and then turned upside down. 5 days after infestation the samples were checked on mortality. Application rate: 12.5 ppm.

[8] = tested on: Myzus persicae (green peach aphid); test: Example B7: Myzus persicae systemic/feeding activity, curative, mixed population (pea seedlings); conditions: 144 h, roots of infested pea seedlings in test solution, 6 days after introduction, read-out: activity (mortality, special effects on the plant)
Source text: Example B7: Activity Against Myzus persicae (Green Peach Aphid)
(Systemic/Feeding Activity, Curative), Mixed Population
Roots of pea seedlings, infested with an aphid population of mixed ages, were placed directly in the test solutions. 6 days after introduction, samples were checked for mortality and special effects on the plant.

[9] = tested on: Thrips tabaci (onion thrips); test: Example B8: Thrips tabaci mixed population, feeding/residual contact, preventive; conditions: foliar, 168 h, mixed population on sprayed sunflower leaf discs, 7 days incubation, read-out: activity (mortality, special effects)
Procedure: Example B8: Activity Against Thrips tabaci (Onion Thrips)
(Mixed Population, Feeding/Residual Contact Activity, Preventive)
as §1, with “a thrips” for “an aphid”, “7 days,” for “6 DAT,”

Structure (SMILES) | mortality at 400 ppm [2] | mortality at 400 ppm [3] | mortality at 400 ppm [4] | mortality at 400 ppm [5] | other results
CCS(=O)(=O)c1cc(C(F)(F)F)cnc1-c1nnc(-c2ccc(C(F)(F)F)cc2)n1C [Compound P5] | > 80% | > 80% | > 80% |  | mortality at 12.5 ppm [1]: ≥ 80%
CCS(=O)(=O)c1cc(C(F)(F)F)cnc1-c1nnc(-c2cccc(C(F)(F)F)c2)n1C [Compound P7] | > 80% | > 80% | > 80% | > 80% | mortality at 12.5 ppm [1]: ≥ 80%; mortality at 400 ppm [6]: > 80%; mortality at 12.5 ppm [7]: ≥ 80%; mortality at 24 ppm [8]: ≥ 80%
CCS(=O)(=O)c1cc(C(F)(F)F)cnc1-c1nnc(-c2ccnc(C(F)(F)F)c2)n1C [Compound P8] |  |  |  | > 80% | mortality at 400 ppm [6]: > 80%; mortality at 24 ppm [8]: ≥ 80%
CCS(=O)(=O)c1cc(C(F)(F)F)cnc1-c1nnc(-c2ccc(C(F)(F)F)cn2)n1C [Compound P10] | > 80% |  | > 80% |  | 
CCS(=O)(=O)c1cc(C(F)(F)F)cnc1-c1nnc(-c2cc(C(F)(F)F)cc(C(F)(F)F)c2)n1C [Compound P12] |  | > 80% | > 80% |  | 
CCS(=O)(=O)c1cc(C(F)(F)F)cnc1-c1nnc(-c2ccc(F)c(Cl)c2)n1C [Compound P15] | > 80% |  | > 80% | > 80% | mortality at 12.5 ppm [7]: ≥ 80%
CCS(=O)(=O)c1cc(C(F)(F)F)cnc1-c1nnc(-c2cc(Cl)cc(Cl)c2)n1C [Compound P16] | > 80% |  | > 80% | > 80% | 
CCS(=O)(=O)c1cc(C(F)(F)F)cnc1-c1nnc(-c2cc(C(F)(F)F)ccc2F)n1C [Compound P19] |  |  |  | > 80% | 
CCS(=O)(=O)c1cc(C(F)(F)F)cnc1-c1nnc(-c2cccc(OC(F)(F)F)c2)n1C [Compound P20] | > 80% |  | > 80% | > 80% | mortality at 12.5 ppm [7]: ≥ 80%
CCS(=O)(=O)c1cc(C(F)(F)F)cnc1-c1nnc(-c2ccc(C(F)(C(F)(F)F)C(F)(F)F)cc2)n1C [Compound P21] | > 80% |  | > 80% |  | 
CCS(=O)(=O)c1cc(C(F)(F)F)cnc1-c1nnc(-c2ccc(Cl)c(F)c2)n1C [Compound P22] | > 80% |  | > 80% | > 80% | mortality at 12.5 ppm [7]: ≥ 80%
CCS(=O)(=O)c1cc(C(F)(F)F)cnc1-c1nnc(-c2cccc(C(F)(F)Cl)c2)n1C [Compound P24] | > 80% | > 80% | > 80% | > 80% | mortality at 12.5 ppm [7]: ≥ 80%
CCS(=O)(=O)c1cc(C(F)(F)F)cnc1-c1nnc(-c2cccc3c2OC(F)(F)O3)n1C [Compound P30] |  |  |  | > 80% | mortality at 12.5 ppm [7]: ≥ 80%
CCS(=O)(=O)c1cc(C(F)(F)F)cnc1-c1nnc(-c2ccc(OC(F)(F)F)cc2)n1C [Compound P33] |  | > 80% | > 80% | > 80% | mortality at 12.5 ppm [1]: ≥ 80%; mortality at 12.5 ppm [7]: ≥ 80%
CCS(=O)(=O)c1cc(C(F)(F)F)cnc1-c1nnc(-c2cccc(C#N)c2)n1C [Compound P34] |  |  |  | > 80% | mortality at 24 ppm [8]: ≥ 80%
CCS(=O)(=O)c1cc(C(F)(F)F)cnc1-c1nnc(-c2ccc(C#N)cc2)n1C [Compound P35] | > 80% |  |  |  | mortality at 24 ppm [8]: ≥ 80%

Structure (SMILES) | mortality at 400 ppm [2] | mortality at 400 ppm [3] | mortality at 400 ppm [4] | mortality at 400 ppm [5] | other results
CCS(=O)(=O)c1cc(C(F)(F)F)cnc1-c1nnc(-c2ccc(Cl)c(Cl)c2)n1C [Compound P46] | > 80% |  | > 80% | > 80% | 
CCSc1cc(C(F)(F)F)cnc1-c1nnc(-c2cccc(C(F)(F)F)n2)n1C [Compound P49] |  |  |  |  | mortality at 400 ppm [6]: > 80%
CCS(=O)(=O)c1cc(C(F)(F)F)cnc1-c1nnc(-c2ccc(C(F)F)cc2)n1C [Compound P53] |  |  |  | > 80% | 
CCSc1cc(C(F)(F)F)ccc1-c1nnc(-c2ccc(C(F)(F)F)nc2)n1C [Compound P54] | > 80% |  |  |  | 
CCS(=O)(=O)c1cc(C(F)(F)F)ccc1-c1nnc(-c2ccc(C(F)(F)F)nc2)n1C [Compound P55] | > 80% |  |  | > 80% | mortality at 24 ppm [8]: ≥ 80%
CCS(=O)(=O)c1cc(C(F)(F)F)cnc1-c1nnc(-c2ccc3c(c2)OC(F)(F)O3)n1C [Compound P56] | > 80% |  | > 80% |  | 
CCS(=O)(=O)c1cc(OC(F)F)cnc1-c1nnc(-c2ccc(C(F)(F)F)nc2)n1C [Compound P58] |  |  |  | > 80% | mortality at 400 ppm [6]: > 80%; mortality at 24 ppm [8]: ≥ 80%
CCS(=O)(=O)c1cc(C(F)(F)F)cnc1-c1nnc(-c2ccc(C(F)(F)F)c(C(F)(F)F)c2)n1C [Compound P61, 2-[5-[3,4-bis(trifluoromethyl)phenyl]-4-methyl-1,2,4-triazol-3-yl]-3-ethylsulfonyl-5-(trifluoromethyl)pyridine] | > 80% | > 80% | > 80% | > 80% | mortality at 400 ppm [6]: > 80%
CCS(=O)(=O)c1cc(C(F)(F)F)cnc1-c1nnc(-c2cc(C(F)(F)F)cc(Cl)n2)n1C [Compound P63] | > 80% |  | > 80% |  | 
CCSc1cc(C(F)(F)F)cnc1-c1nnc(-c2cc(C(F)(F)F)ccn2)n1CC [Compound P64] | > 80% |  | > 80% |  | 
CCS(=O)(=O)c1cc(OC(F)F)cnc1-c1nnc(-c2cc(C(F)(F)F)ccn2)n1C [Compound P66] | > 80% | > 80% | > 80% | > 80% | mortality at 12.5 ppm [1]: ≥ 80%; mortality at 24 ppm [8]: ≥ 80%
CSc1cc(C(F)(F)F)cnc1-c1nnc(-c2cc(C(F)(F)F)ccn2)n1C [Compound P70] | > 80% |  |  |  | 
Cn1c(-c2cc(C(F)(F)F)ccn2)nnc1-c1ncc(C(F)(F)F)cc1S(C)(=O)=O [Compound P71] | > 80% | > 80% | > 80% | > 80% | mortality at 24 ppm [8]: ≥ 80%
Cn1c(-c2cc(C(F)(F)F)ccn2)nnc1-c1ncc(C(F)(F)F)cc1S(=O)(=O)CC1CC1 [Compound P72] |  | > 80% |  |  | mortality at 400 ppm [9]: > 80%
Cn1c(-c2cc(C(F)(F)F)ccn2)nnc1-c1ncc(C(F)(F)F)cc1SCC1CC1 [Compound P76] | > 80% | > 80% |  |  | mortality at 400 ppm [9]: > 80%

Reference: patent publication US9926294B2, “Pesticidally active heterocyclic derivatives with sulphur containing substituents” (Syngenta Participations AG, priority 2014, dated 2018)
